Assay results from patent publication US9029542B2 (priority 2011, dated 2015).
Where “and” joins values, the source holds several entries; their conditions need not be identical. Identical values can stand only once. Like-named read-outs stand apart in the source and are kept apart here.

Legend:
cockspur grass = experiment: whole plant or invertebrate; format: in vivo; details: Echinochloa crus-galli; for pest or weed control at 10 µg/g / pest or weed control at 100 µg/g: 120 h
rape [1] = experiment: whole plant or invertebrate; format: in vivo; details: for plant injury at 10 µg/g / plant injury at 100 µg/g: 120 h
Capsella bursa-pastoris = experiment: whole plant or invertebrate; format: in vivo; details: 600 h, read-out: weed clearing activity, Capsella bursa-pastoris Postemergence
Amaranthus retroflexus = experiment: whole plant or invertebrate; format: in vivo
Eclipta prostrata = experiment: whole plant or invertebrate; format: in vivo
[2] = test system: weeds of the expanded weed killing spectrum; details: in vivo
rice = details: in vivo
corn = details: in vivo
cotton = details: in vivo
soybean = details: in vivo
rape [3] = details: in vivo
Wheat [4] = details: in vivo
Sorghum = experiment: whole plant or invertebrate; format: in vivo
Wheat [5] = experiment: whole plant or invertebrate; format: in vivo; details: Triticum aestivum
Radish = experiment: whole plant or invertebrate; format: in vivo; details: Raphanus sativus
Cucumber = experiment: whole plant or invertebrate; format: in vivo; details: Cucumis sativus
Abutilon theophrasti = experiment: whole plant or invertebrate; format: in vivo; details: Abutilon theophrasti, 600 h, read-out: Postemergence weed clearing activity, Abutilon theophrasti
[6] = read-out: weed clearing activity, cockspur grass Root (Effect)
[7] = read-out: weed clearing activity, cockspur grass Stem (Effect)
[8] = read-out: weed clearing activity, rape Root (Effect)
[9] = read-out: weed clearing activity, rape Stem (Effect)
[10] = Amaranthus retroflexus, 600 h, read-out: weed clearing activity, Amaranthus retroflexus Postemergence
[11] = Eclipta prostrata, 600 h, read-out: weed clearing activity, Eclipta prostrata Postemergence

CC(OC(=O)COc1ccc(Cl)cc1Cl)P1(=O)OCC(C)(C)CO1 (stereo not shown) [Compound 11, 2-(2,4-dichlorophenoxyethylacyloxy)(methyl)methyl-5,5-dimethyl-1,3,2-dioxaphosphorinan-2-one phosphonate]
pest or weed control at 10 µg/g (cockspur grass; [6]): 100%
pest or weed control at 100 µg/g (cockspur grass; [6]): 100%
pest or weed control at 10 µg/g (cockspur grass; [7]): 55%
pest or weed control at 100 µg/g (cockspur grass; [7]): 57%
plant injury at 10 µg/g (rape [1]; [8]): 99%
plant injury at 100 µg/g (rape [1]; [8]): 99%
plant injury at 10 µg/g (rape [1]; [9]): 88%
plant injury at 100 µg/g (rape [1]; [9]): 92%
pest or weed control at 37.5 g/ha (Capsella bursa-pastoris): 90%
pest or weed control at 75 g/ha (Capsella bursa-pastoris): 100%
pest or weed control at 150 g/ha (Capsella bursa-pastoris): 100%
pest or weed control at 37.5 g/ha (Amaranthus retroflexus; [10]): 70%
pest or weed control at 75 g/ha (Amaranthus retroflexus; [10]): 90%
pest or weed control at 150 g/ha (Amaranthus retroflexus; [10]): 80%
weed clearing activity, Amaranthus retroflexus Postemergence (※) (Amaranthus retroflexus; in vivo): 100^※ %
weed clearing activity, Amaranthus retroflexus Postemergence, value in parentheses (Amaranthus retroflexus; in vivo): 90(70) %
pest or weed control at 37.5 g/ha (Eclipta prostrata; [11]): 50%
pest or weed control at 75 g/ha (Eclipta prostrata; [11]): 85%
pest or weed control at 150 g/ha (Eclipta prostrata; [11]): 70%
weed clearing activity, Eclipta prostrata Postemergence (※) (Eclipta prostrata; in vivo): 90^※ %
weed clearing activity, Eclipta prostrata Postemergence, value in parentheses (Eclipta prostrata; in vivo): 85(70) %
Activity of expanded weed killing spectrum, Abutilon theophrasti [2]: 70% and 75%
Activity of expanded weed killing spectrum, Alligator alternanthera [2]: 60%
Activity of expanded weed killing spectrum, Cayenne pepper [2]: 70% and 75%
Activity of expanded weed killing spectrum, Cucumis sativus [2]: 40% and 50%
Activity of expanded weed killing spectrum, Pakchoi [2]: 85%
Activity of expanded weed killing spectrum, Pigweed [2]: 85%
Activity of expanded weed killing spectrum, Tomato [2]: 70% and 75%
Inhibitory activity on the crops, Rice (rice): 10
Inhibitory activity on the crops, Corn (corn): 0
Inhibitory activity on the crops, Cotton (cotton): 30
Inhibitory activity on the crops, Soybean (soybean): 30
Inhibitory activity on the crops, Rape (rape [3]): 40
Inhibitory activity on the crops, Wheat (Wheat [4]): 0

Cc1cc(Cl)ccc1OCC(=O)OC(C)P1(=O)OCC(C)(C)CO1 (stereo not shown) [Compound 34, 2-(2-methyl-4-chlorophenoxyethylacyloxy)(methyl)methyl-5,5-dimethyl-1,3,2-dioxaphosphorinan-2-one phosphonate]
inhibition at 100 µg/mL (cockspur grass; read-out: inhibitory activity, Cockspur grass Root): 70%
inhibition at 100 µg/mL (cockspur grass; read-out: inhibitory activity, Cockspur grass Stem): 80%
inhibition at 100 µg/mL (rape [1]; read-out: inhibitory activity, Rape Root): 100%
inhibition at 100 µg/mL (rape [1]; read-out: inhibitory activity, Rape Stem): 100%
inhibition at 100 µg/mL (Sorghum; read-out: inhibitory activity, Sorghum Root): 100%
inhibition at 100 µg/mL (Sorghum; read-out: inhibitory activity, Sorghum Stem): 100%
inhibition at 100 µg/mL (Wheat [5]; read-out: inhibitory activity, Wheat Root): 90%
inhibition at 100 µg/mL (Wheat [5]; read-out: inhibitory activity, Wheat Stem): 60%
inhibition at 100 µg/mL (Radish; read-out: inhibitory activity, Radish Root): 100%
inhibition at 100 µg/mL (Radish; read-out: inhibitory activity, Radish Stem): 100%
inhibition at 100 µg/mL (Cucumber; read-out: inhibitory activity, Cucumber Root): 100%
inhibition at 100 µg/mL (Cucumber; read-out: inhibitory activity, Cucumber Stem): 100%
pest or weed control at 150 g/ha (Capsella bursa-pastoris): 90%
pest or weed control at 150 g/ha (Amaranthus retroflexus; [10]): 90%
pest or weed control at 150 g/ha (Eclipta prostrata; [11]): 80%
Weed clearing activity, Eclipta prostrata, Postemergence (Eclipta prostrata; in vivo): 85%
pest or weed control at 150 g/ha (Abutilon theophrasti): 75%
Activity of expanded weed killing spectrum, Alligator alternanthera [2]: 60% and 70%
Activity of expanded weed killing spectrum, Ammania [2]: 50% and 60%
Activity of expanded weed killing spectrum, Cabbage [2]: 70%
Activity of expanded weed killing spectrum, Capsella bursa-pastoris [2]: 85%
Activity of expanded weed killing spectrum, Cayenne pepper [2]: 70%
Activity of expanded weed killing spectrum, Cucumis sativus [2]: 60% and 70%
Activity of expanded weed killing spectrum, Monochoria [2]: 30% and 60%
Activity of expanded weed killing spectrum, Pakchoi [2]: 70%
Activity of expanded weed killing spectrum, Pigweed [2]: 70% and 75%
Activity of expanded weed killing spectrum, Rape [2]: 85%
Activity of expanded weed killing spectrum, Rumex acetosa [2]: 70% and 75%
Activity of expanded weed killing spectrum, Tomato [2]: 60% and 70%
Activity of expanded weed killing spectrum, Vicia cracca [2]: 70%
